Laboratory results reported in US20090005395A1 (Solvay Pharmaceuticals, B.V., priority 2007, published 2009).
Where two headings read alike, the source gives them in different places.

Experiments:
[1] = Reduction of sildenafil N-oxide in the human colon model TIM2; assay type: in vitro ADME
Procedure: The human colon model TIM2 (TNO Intestinal Model 2) is a dynamic model for the human large intestine that simulates in vivo conditions. It is an artificial digestive system that has been validated by many studies (Minekus, 1999).
Suspended in 1% methylcellulose, sildenafil-N-oxide (1 mg) was inserted into the lumen (120 ml) of the TIM2 model (see above, Minekus, 1999). Samples from the lumen and the dialysate (the latter being a model for the vascular bed of the intestines) were taken at various time intervals, and analyzed for sildenafil-N-oxide and sildenafil.

[2] = target: PDE-II (Homo sapiens, UniProt O00408); experiment: In vitro inhibition of phosphodiesterases (CEREP): PDE-II
[3] = Plasma and brain concentrations of N-desmethylsildenafil (pilot experiment); assay type: in vivo, male NMRI mice; conditions: mice, i.v. or p.o.; for the N-oxide only observed after oral dosing
Procedure: Sildenafil and its N-oxide were analyzed in mouse plasma and brain samples using a generic bioanalytical method comprising protein precipitation and HPLC with MS/MS detection.
Sample preparation: Proteins in 100 μl plasma were precipitated with acetonitrile, and 5 μl samples of the obtained solution were analyzed. Complete brains were homogenized and centrifuged, and 10 μl samples of the supernatant were analyzed.
Liquid Chromatography-Tandem Mass Spectrometry (LC-MS/MS) was performed using a Sciex API4000 LC-MS/MS. Quantification of the samples was done using extracted calibration samples, treated the same as the study samples in the range of 1-5000 ng/ml and 5.0-5000 ng/brain for plasma and brains samples, respectively. Compound peak area was used for quantification. The calibration curves were fitted to the model y=A+Bx+Cx^2 (y is the peak area of the analyte, x is the nominal calibration level in ng/ml (plasma) or ng/g (brain), A is the intercept, B is the slope and C is the description of the curvature). 1/x^2 weighing was used. LC-MS/MS system performance was monitored using a reference solution injected at standard intervals. The method use for testing was not validated in detail, therefore the reported concentrations were good estimations. The Lower Limit Of Quantification (LLOQ) was established at 1.00 ng/ml and 5.00 ng/brain, for plasma and brain samples, respectively. […]

[4] = target: PDE-V (Homo sapiens, UniProt O76074); experiment: In vitro inhibition of phosphodiesterases (CEREP): PDE-V
[5] = system: PDE-IV; experiment: In vitro inhibition of phosphodiesterases (CEREP): PDE-IV; conditions: human U-937 monocytes
[6] = Plasma pharmacokinetics of sildenafil and its N-oxide; assay type: in vivo; conditions: male, NMRI, mouse, mice; for Kp: brain, read-out: Brain/plasma ratio; for AUC: read-out: AUC0→end; for AUC(0-inf): Tend = ∞
Procedure: Liquid Chromatography-Tandem Mass Spectrometry (LC-MS/MS) was performed using a Sciex API4000 LC-MS/MS. […] Compound peak area was used for quantification. The calibration curves were fitted to the model y=A+Bx+Cx^2 (y is the peak area of the analyte, x is the nominal calibration level in ng/ml (plasma) or ng/g (brain), A is the intercept, B is the slope and C is the description of the curvature). 1/x^2 weighing was used. LC-MS/MS system performance was monitored using a reference solution injected at standard intervals. […] The Lower Limit Of Quantification (LLOQ) was established at 1.00 ng/ml and 5.00 ng/brain, for plasma and brain samples, respectively. Reversed phase HPLC was performed using gradient elution by a Hypersil BDS C18 100×4.6 mm 3 μm analytical column, with a temperature of 45° C. and a flow of 1.00 ml/min: […]

[7] = target: PDE-III (Homo sapiens, UniProt Q14432); experiment: In vitro inhibition of phosphodiesterases (CEREP): PDE-III
[8] = TIM2, 1 mg in 1% methylcellulose into lumen (120 ml), 0 h
[9] = TIM2, 1 mg into lumen (120 ml), 2 h
[10] = TIM2, 1 mg into lumen (120 ml), 4 h
[11] = TIM2, 1 mg into lumen (120 ml), 6 h
[12] = TIM2, 1 mg into lumen (120 ml), 8 h
[13] = TIM2, 1 mg into lumen (120 ml), 24 h

Chain of PDE-II (O00408 whole entry): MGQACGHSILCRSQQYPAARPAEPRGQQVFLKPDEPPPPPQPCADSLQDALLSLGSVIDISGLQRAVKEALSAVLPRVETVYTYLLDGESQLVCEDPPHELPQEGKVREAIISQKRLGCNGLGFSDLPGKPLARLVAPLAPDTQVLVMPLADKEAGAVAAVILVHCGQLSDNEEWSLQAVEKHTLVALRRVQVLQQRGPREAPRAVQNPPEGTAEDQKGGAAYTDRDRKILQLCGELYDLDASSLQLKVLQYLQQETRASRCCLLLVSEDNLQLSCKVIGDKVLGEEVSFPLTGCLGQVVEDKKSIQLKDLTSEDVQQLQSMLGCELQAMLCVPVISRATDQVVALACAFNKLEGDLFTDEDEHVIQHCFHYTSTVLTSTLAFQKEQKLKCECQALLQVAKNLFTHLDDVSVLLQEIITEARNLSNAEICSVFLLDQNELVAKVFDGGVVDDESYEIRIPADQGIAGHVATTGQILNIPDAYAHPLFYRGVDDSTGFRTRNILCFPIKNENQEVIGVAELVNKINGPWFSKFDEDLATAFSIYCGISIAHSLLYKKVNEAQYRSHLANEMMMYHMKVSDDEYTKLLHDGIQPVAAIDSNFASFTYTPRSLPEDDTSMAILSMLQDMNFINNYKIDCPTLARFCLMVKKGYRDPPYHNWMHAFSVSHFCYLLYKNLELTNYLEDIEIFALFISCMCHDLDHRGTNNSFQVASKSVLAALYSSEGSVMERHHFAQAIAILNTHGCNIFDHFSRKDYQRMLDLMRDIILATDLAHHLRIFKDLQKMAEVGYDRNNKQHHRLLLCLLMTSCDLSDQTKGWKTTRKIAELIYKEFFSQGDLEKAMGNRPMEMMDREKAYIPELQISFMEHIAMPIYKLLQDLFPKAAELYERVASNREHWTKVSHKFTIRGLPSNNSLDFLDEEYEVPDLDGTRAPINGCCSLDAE
Chain of PDE-III (Q14432 674-1093 limits assumed): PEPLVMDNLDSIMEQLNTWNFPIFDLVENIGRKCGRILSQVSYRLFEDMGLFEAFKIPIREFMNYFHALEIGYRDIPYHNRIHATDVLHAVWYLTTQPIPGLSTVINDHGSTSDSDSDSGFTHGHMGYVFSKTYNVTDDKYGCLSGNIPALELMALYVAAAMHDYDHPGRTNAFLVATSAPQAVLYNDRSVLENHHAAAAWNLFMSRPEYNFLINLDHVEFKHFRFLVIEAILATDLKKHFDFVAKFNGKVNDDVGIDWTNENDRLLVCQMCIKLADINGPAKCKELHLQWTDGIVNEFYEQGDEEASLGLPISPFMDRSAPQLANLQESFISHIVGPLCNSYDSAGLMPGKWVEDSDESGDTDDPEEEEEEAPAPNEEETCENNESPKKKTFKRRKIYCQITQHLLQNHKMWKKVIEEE

Sildenafil-N-oxide Dialysate concentration [1, 8]: <1.0 ng/mL
Sildenafil-N-oxide Lumen concentration [1, 8]: <1.0 ng/mL
Sildenafil-N-oxide Dialysate concentration [1, 9]: 33 ng/mL
Sildenafil-N-oxide Lumen concentration [1, 9]: 6.6 ng/mL
Sildenafil-N-oxide Dialysate concentration [1, 10]: <1.0 ng/mL
Sildenafil-N-oxide Lumen concentration [1, 10]: 4.7 ng/mL
Sildenafil-N-oxide Dialysate concentration [1, 11]: <1.0 ng/mL
Sildenafil-N-oxide Lumen concentration [1, 11]: 4.9 ng/mL
Sildenafil-N-oxide Dialysate concentration [1, 12]: <1.0 ng/mL
Sildenafil-N-oxide Lumen concentration [1, 12]: 6.7 ng/mL
Sildenafil-N-oxide Dialysate concentration [1, 13]: <1.0 ng/mL
Sildenafil-N-oxide Lumen concentration [1, 13]: 2.7 ng/mL
IC50 [2]: > 10 µM
metabolism to N-desmethylsildenafil [3]: metabolized to N-desmethylsildenafil
IC50 [4]: 0.2 µM
activity relative to the parent compound sildenafil [4]: about one tenth
fold less potent than sildenafil ([4]; from Table 5): 10 fold
pIC50 PDE-IV [5]: <5.0
Kp ([6]; iv, i.v. 1 mg/kg): 0.5
Kp ([6]; po, p.o. 10 mg/kg): 2.5
Tmax ([6]; iv, plasma, i.v. 1 mg/kg): 0 h
half-life ([6]; iv, plasma, i.v. 1 mg/kg): 0.4 h
AUC ([6]; iv, plasma, i.v. 1 mg/kg, Tend = 3 hrs): 125 ng·h/mL
AUC(0-inf) ([6]; iv, plasma, i.v. 1 mg/kg): 125 ng·h/mL
Cmax ([6]; iv, plasma, i.v. 1 mg/kg, extrapolated to T0 (time zero), read-out: Cmax (C0)): 495 ng/mL
Vd ([6]; plasma, iv, i.v. 1 mg/kg): 5 L/kg
clearance ([6]; plasma, iv, i.v. 1 mg/kg): 133 mL/min/kg
bioavailability ([6]; plasma, po, 10 mg/kg, i.v.): 1.5%
Tmax ([6]; po, plasma, p.o. 10 mg/kg): 1 h
half-life ([6]; po, plasma, p.o. 10 mg/kg): 5.1 h
AUC ([6]; po, plasma, p.o. 10 mg/kg, Tend = 24 hrs): 10.8 ng·h/mL
AUC(0-inf) ([6]; po, plasma, p.o. 10 mg/kg): 18.8 ng·h/mL
Cmax ([6]; po, plasma, p.o. 10 mg/kg, read-out: Cmax): 2.7 ng/mL
IC50 [7]: > 10 µM
SMILES: CCCc1nn(C)c2c(=O)[nH]c(-c3cc(S(=O)(=O)N4CC[N+](C)([O-])CC4)ccc3OCC)nc12 [Sildenafil-N-oxide, 1-[[3-(6,7-dihydro-1-methyl-7-oxo-3-propyl-1H-pyrazolo[4,3-d]pyrimidin-5-yl)-4-ethoxyphenyl]sulfonyl]-4-methyl-4-oxido-piperazine]
reduction to sildenafil in TIM2 ([1]; within 2 hours after dosing): nearly quantitatively reduced to sildenafil
